The source of these data is DBAASP.

Molecules are shown by their SMILES. Values after ≈ are worked out from the molar mass of the structure shown.

What all share (test): ≥ marks a high value that may be exact or a test limit, other limits are often not marked, values filed in µg/mL are converted to µM
The subject of assay [1] is Escherichia coli KCTC 1682.
In assay [2] the test system is Staphylococcus aureus MR.
Assay [3] deals with Enterococcus faecium VR.
Assay [4] relates to Enterococcus faecalis VR.
Assay [5] deals with Enterococcus faecalis.
Assay [6] has as its system Bacillus subtilis KCTC 3068.
Assay [7] concerns Pseudomonas aeruginosa KCTC 1637.
The test system of assay [8] is Enterococcus faecium.
Assay [9] concerns Staphylococcus epidermidis KCTC 1917.
Assay [10] deals with Staphylococcus aureus KCTC 1621.
The subject of assay [11] is Salmonella typhimurium KCTC 1926.
Assay [12] has as its system Bacillus cereus C737.
For assay [13], the system named is Pseudomonas aeruginosa PAO1.
Assay [14] relates to Escherichia coli UB1005.
Assay [15] relates to Enterococcus faecalis PCM 2673.
The test system of assay [16] is Acinetobacter baumannii ATCC 19606.
Assay [17] concerns Klebsiella pneumoniae ATCC 700603.
Assay [18] concerns Staphylococcus aureus ATCC 9144.
Assay [19] concerns Staphylococcus aureus ATCC 25923.
Assay [20] has as its system Candida glabrata ATCC 15126.
Assay [21] deals with Candida albicans ATCC 10231.
Assay [22] has as its system Aspergillus niger ATCC 16404.
Assay [23] deals with Escherichia coli ATCC 25922.
Assay [24] relates to Escherichia coli ATCC 23506.
Assay [25] has as its system Streptococcus pneumoniae ATCC 49619.
Assay [26] concerns Pseudomonas aeruginosa ATCC 9027.
The test system of assay [27] is Vibrio anguillarum ATCC 43305.
Assay [28] concerns Pseudomonas aeruginosa ATCC 27853.
Assay [29] concerns Bacillus subtilis ATCC 6051.
In assay [30] the test system is Klebsiella pneumoniae ATCC 13883.
Assay [31] concerns Staphylococcus aureus USA 300.
Assay [32] concerns Staphylococcus aureus USA 300 LAC.

On to `CC(C)C[C@H](NC(=O)[C@H](CO)NC(=O)[C@H](CC(C)C)NC(=O)[C@H](CS)NC(=O)[C@H](CC(N)=O)NC(=O)[C@H](C)NC(=O)[C@H](C)N)C(=O)NCC(=O)N[C@@H](CCCCN)C(=O)N[C@@H](C)C(N)=O` [AANCLSLGKA], for which the MIC in assay [1], in [2], in assay [3], in assay [4], in [5] and in assay [6] was 30 µM (≈ 28.4 µg/mL) throughout. Also, the MIC in assay [7], in assay [8], in assay [9], in [10] and in [11] was 30 µM (≈ 28.4 µg/mL) throughout.
Consider `CC[C@H](C)[C@H](NC(=O)[C@H](CC(=O)O)NC(=O)[C@H](Cc1ccccc1)NC(=O)[C@H](CC(C)C)NC(=O)CN)C(=O)N[C@H](C(=O)N[C@@H](CCCCN)C(=O)N[C@@H](CCCCN)C(=O)N[C@H](C(=O)N[C@H](C(=O)NCC(=O)N[C@@H](C)C(=O)N[C@H](C(=O)NCC(=O)N[C@@H](CO)C(=O)N[C@@H](CC(C)C)C(N)=O)C(C)C)C(C)C)C(C)C)C(C)C` [GLFDIVKKVVGAVGSL], for which the MIC (as a rule, the lowest concentration found to suppress growth) is ≥ 79.9 µM in assay [12], > 79.9 µM in [13] and ≥ 40 µM in assay [14].
Consider `CC[C@H](C)[C@H](NC(=O)[C@H](CC(C)C)NC(=O)[C@H](CCCN=C(N)N)NC(=O)[C@H](Cc1c[nH]c2ccccc12)NC(=O)[C@@H]1CCCN1C(=O)[C@H](Cc1c[nH]c2ccccc12)NC(=O)[C@H](Cc1c[nH]c2ccccc12)NC(=O)[C@@H]1CCCN1C(=O)[C@H](Cc1c[nH]c2ccccc12)NC(=O)[C@H](CCCN=C(N)N)NC(=O)[C@H](CCCN=C(N)N)NC(=O)[C@@H](N)CCCCN)C(N)=O` [KRRWPWWPWRLI], for which the MIC was 8.99 µM (≈ 16 µg/mL) in assay [15]; 8.99 µM (≈ 16 µg/mL) in [16]; 2.25 µM (≈ 4 µg/mL) in assay [17]; 4.49 µM (≈ 8 µg/mL) in assay [18]; 4.49 µM (≈ 8 µg/mL) in [19]; ≥ 36 µM in [20]. For the same molecule, the MIC in assay [21] is 18 µM (≈ 32 µg/mL); in assay [22] it was ≥ 36 µM; in assay [23] it was 4.49 µM (≈ 8 µg/mL); in [24], 2.25 µM (≈ 4 µg/mL); in assay [25] it was 4.49 µM (≈ 8 µg/mL); in [26] it was 2.25 µM (≈ 4 µg/mL).
Consider `CC(C)C[C@H](N)C(=O)N[C@@H](CCCN=C(N)N)C(=O)N[C@@H](Cc1c[nH]c2ccccc12)C(=O)N[C@H](C(=O)N1CCC[C@H]1C(=O)N[C@H](C(=O)N1CCC[C@H]1C(=O)N[C@@H](CO)C(=O)N[C@@H](Cc1ccc(O)cc1)C(=O)N1CCC[C@H]1C(=O)N[C@@H](CCCN=C(N)N)C(=O)N[C@@H](Cc1ccc(O)cc1)C(=O)N1CCC[C@H]1C(=O)N[C@H](C(=O)N[C@@H](CCCN=C(N)N)C(=O)N[C@@H](CO)C(=O)N[C@@H](CCCN=C(N)N)C(=O)NCC(=O)N[C@@H](CO)C(=O)N[C@@H](CCCN=C(N)N)C(=O)N[C@@H](Cc1c[nH]c2ccccc12)C(=O)N[C@@H](CO)C(=O)N[C@@H](CCCN=C(N)N)C(N)=O)[C@@H](C)O)[C@@H](C)O)[C@@H](C)O` [LRWTPTPSYPRYPTRSRGSRWSR], for which the MIC in assay [27] was ≥ 32 µM; in assay [16] it was 8 µM (≈ 22.9 µg/mL); in [19], > 32 µM; in [28], > 32 µM; in [23], 11.3 µM (≈ 32.4 µg/mL); in assay [29], ≥ 32 µM.
Take `CC[C@H](C)[C@H](NC(=O)[C@H](CCCN=C(N)N)NC(=O)[C@H](CCCN=C(N)N)NC(=O)[C@H](CC(C)C)NC(=O)[C@H](Cc1c[nH]c2ccccc12)NC(=O)[C@H](CCCN=C(N)N)NC(=O)[C@@H](N)Cc1c[nH]c2ccccc12)C(=O)N[C@@H](Cc1c[nH]c2ccccc12)C(N)=O` [WRWLRRIW]: the minimal inhibitory concentration (MIC) was 25 µM (≈ 31.8 µg/mL) in assay [30]; 6.2 µM (≈ 7.88 µg/mL) in assay [31]; 25 µM (≈ 31.8 µg/mL) in assay [23]; 6.2 µM (≈ 7.88 µg/mL) in [32]; 6.2 µM (≈ 7.88 µg/mL) in assay [13].
